The results in this text go back to ChEMBL document CHEMBL5291721, “A preclinical secondary pharmacology resource illuminates target-adverse drug reaction associations of marketed drugs” (Nat Commun, 2023).

The term AC50 denotes the concentration at which the activity in the assay is half-maximal.

Test [1] concerns the target 3',5'-cyclic-AMP phosphodiesterase 4A (Homo sapiens, UniProt P27815). Type of test: functional.
The target of test [2] is Sodium-dependent serotonin transporter (Homo sapiens, UniProt P31645).
In test [3] the target is Prostaglandin G/H synthase 1 (Homo sapiens, UniProt P23219). The format is functional.
Test [4] deals with T1, Thromboxane A2 receptor (Homo sapiens, UniProt P21731).
T1 sequence (P21731 whole entry): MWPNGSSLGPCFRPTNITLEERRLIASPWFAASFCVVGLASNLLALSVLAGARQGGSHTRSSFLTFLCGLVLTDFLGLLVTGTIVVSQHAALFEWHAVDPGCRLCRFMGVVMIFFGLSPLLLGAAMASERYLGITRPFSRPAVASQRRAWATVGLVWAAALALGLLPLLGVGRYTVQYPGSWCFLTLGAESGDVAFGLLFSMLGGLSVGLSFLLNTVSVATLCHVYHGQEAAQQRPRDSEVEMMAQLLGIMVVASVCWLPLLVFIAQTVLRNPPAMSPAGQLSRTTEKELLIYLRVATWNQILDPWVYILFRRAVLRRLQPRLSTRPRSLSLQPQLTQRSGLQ
Type of test: functional, cell-based.

For test [5], the target named is Sodium-dependent noradrenaline transporter (Homo sapiens, UniProt P23975).
Test [6] concerns the target T2, Amine oxidase [flavin-containing] A (Homo sapiens, UniProt P21397).
T2 sequence (P21397 whole entry): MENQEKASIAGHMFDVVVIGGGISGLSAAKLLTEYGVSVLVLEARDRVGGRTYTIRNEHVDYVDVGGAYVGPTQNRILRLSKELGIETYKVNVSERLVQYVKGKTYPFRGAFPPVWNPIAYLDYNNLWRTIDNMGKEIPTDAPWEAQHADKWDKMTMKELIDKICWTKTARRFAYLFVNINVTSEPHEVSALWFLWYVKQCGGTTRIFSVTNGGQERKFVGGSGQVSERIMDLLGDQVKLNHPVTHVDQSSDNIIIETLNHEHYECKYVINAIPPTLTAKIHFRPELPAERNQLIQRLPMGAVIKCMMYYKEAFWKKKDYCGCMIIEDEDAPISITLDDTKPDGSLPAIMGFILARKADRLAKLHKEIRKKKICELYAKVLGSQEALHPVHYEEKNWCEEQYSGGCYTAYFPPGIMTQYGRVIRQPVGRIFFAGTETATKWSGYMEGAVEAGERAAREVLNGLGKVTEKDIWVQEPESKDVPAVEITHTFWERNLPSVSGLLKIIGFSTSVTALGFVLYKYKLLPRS
The format is functional.

In test [7] the target is Acetylcholinesterase (Homo sapiens, UniProt P22303). The format is functional.
Test [8] has as its target D(1A) dopamine receptor (Homo sapiens, UniProt P21728).
Test [9] deals with Mu-type opioid receptor (Homo sapiens, UniProt P35372).
Test [10] has as its target 5-hydroxytryptamine receptor 2B (Homo sapiens, UniProt P41595). The format is functional, cell-based.
Test [11] deals with Sodium-dependent dopamine transporter (Homo sapiens, UniProt Q01959).
Test [12] deals with T1, Thromboxane A2 receptor. The format is functional, cell-based. The source holds these as a separate data set.
Test [13] deals with Prothrombin (Homo sapiens, UniProt P00734). The format is functional.
Test [14] addresses Voltage-gated inwardly rectifying potassium channel KCNH2 (Homo sapiens, UniProt Q12809). Type of test: functional. The settings on record: read-out: AC50.
In test [15] the target is T3, Alpha-1A adrenergic receptor (Homo sapiens, UniProt P35348).
T3 sequence (P35348 whole entry): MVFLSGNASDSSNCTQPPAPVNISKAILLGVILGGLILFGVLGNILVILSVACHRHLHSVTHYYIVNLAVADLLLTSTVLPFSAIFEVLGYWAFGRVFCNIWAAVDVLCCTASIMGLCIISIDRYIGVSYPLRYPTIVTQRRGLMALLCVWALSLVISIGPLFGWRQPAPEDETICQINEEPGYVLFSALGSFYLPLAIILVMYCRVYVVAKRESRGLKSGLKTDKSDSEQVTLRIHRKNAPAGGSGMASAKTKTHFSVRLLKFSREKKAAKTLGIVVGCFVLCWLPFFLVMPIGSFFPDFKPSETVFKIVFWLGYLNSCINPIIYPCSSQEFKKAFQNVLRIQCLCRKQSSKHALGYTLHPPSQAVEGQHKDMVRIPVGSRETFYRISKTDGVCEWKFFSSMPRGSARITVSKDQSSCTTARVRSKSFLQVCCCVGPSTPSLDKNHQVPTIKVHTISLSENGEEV
Type of test: functional, cell-based.

Test [16] addresses T4, Adenosine receptor A3 (Homo sapiens, UniProt P0DMS8).
T4 sequence (P0DMS8 whole entry): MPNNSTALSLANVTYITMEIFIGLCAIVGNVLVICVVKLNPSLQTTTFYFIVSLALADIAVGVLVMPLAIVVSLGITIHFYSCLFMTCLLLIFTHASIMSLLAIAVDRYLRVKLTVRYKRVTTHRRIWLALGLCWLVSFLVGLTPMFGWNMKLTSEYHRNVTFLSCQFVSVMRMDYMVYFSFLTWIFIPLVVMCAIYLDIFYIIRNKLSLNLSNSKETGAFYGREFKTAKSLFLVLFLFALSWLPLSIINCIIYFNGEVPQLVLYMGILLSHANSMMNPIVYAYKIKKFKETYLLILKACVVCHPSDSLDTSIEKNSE

The structures appear in SMILES notation.
Note: assay procedure not described here.

Chain of Mu-type opioid receptor (P35372 whole entry): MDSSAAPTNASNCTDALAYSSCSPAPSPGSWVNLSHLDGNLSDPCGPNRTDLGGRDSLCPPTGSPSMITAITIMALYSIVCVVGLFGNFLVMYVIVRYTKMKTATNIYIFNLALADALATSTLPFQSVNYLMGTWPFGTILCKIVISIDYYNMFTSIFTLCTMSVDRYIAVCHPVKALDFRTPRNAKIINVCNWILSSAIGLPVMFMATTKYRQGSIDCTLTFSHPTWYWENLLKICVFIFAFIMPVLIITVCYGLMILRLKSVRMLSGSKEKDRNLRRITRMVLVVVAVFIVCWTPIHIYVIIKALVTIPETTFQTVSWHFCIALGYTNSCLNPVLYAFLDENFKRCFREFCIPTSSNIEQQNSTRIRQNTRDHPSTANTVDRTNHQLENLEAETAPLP
Chain of 3',5'-cyclic-AMP phosphodiesterase 4A (P27815 whole entry): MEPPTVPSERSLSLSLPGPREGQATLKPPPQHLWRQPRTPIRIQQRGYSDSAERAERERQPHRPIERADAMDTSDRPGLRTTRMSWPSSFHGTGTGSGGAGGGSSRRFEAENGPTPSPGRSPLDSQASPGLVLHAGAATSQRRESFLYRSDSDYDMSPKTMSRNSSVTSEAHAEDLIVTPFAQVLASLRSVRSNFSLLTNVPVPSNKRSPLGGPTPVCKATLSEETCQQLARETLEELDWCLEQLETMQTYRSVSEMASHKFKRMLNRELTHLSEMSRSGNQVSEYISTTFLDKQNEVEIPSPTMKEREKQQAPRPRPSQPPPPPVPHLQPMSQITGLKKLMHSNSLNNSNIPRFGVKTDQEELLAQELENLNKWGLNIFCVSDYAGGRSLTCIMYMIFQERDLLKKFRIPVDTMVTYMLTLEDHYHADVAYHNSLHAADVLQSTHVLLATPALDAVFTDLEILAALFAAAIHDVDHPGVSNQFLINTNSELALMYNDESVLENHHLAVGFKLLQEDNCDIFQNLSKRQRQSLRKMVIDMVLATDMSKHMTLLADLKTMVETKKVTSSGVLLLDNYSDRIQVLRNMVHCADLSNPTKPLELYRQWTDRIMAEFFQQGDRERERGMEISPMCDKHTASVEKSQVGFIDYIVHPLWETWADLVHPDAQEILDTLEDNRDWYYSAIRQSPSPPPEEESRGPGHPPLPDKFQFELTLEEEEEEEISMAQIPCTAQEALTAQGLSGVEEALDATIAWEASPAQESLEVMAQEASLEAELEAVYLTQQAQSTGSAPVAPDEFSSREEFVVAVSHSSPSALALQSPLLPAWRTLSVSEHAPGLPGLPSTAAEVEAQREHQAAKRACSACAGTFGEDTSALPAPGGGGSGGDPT
Chain of Acetylcholinesterase (P22303 whole entry): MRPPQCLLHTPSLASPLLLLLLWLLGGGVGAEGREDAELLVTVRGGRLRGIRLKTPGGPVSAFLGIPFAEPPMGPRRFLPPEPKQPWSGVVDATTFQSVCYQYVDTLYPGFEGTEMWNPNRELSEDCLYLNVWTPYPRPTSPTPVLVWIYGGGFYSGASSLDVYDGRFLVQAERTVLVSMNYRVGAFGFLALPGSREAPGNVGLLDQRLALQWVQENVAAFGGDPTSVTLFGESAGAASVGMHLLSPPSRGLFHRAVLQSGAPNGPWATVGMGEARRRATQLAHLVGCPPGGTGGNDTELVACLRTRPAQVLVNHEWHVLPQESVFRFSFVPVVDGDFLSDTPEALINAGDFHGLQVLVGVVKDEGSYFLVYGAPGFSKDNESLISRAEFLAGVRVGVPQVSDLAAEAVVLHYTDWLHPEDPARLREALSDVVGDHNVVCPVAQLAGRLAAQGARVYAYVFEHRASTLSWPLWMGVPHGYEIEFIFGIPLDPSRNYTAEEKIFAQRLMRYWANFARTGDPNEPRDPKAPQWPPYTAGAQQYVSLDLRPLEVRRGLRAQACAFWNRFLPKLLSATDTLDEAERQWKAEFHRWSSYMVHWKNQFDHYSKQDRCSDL
Chain of D(1A) dopamine receptor (P21728 whole entry): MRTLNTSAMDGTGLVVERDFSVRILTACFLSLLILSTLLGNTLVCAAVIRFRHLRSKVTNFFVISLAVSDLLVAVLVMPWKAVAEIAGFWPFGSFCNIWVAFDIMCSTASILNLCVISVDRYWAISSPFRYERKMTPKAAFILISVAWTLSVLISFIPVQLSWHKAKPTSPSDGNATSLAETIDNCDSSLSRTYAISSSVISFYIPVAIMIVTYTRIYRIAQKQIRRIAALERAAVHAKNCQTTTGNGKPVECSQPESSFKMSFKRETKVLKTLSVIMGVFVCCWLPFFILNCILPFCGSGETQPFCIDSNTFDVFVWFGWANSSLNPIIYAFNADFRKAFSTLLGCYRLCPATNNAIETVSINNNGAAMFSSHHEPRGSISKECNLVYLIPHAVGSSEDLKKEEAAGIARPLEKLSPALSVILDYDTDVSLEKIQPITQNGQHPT
Chain of Sodium-dependent dopamine transporter (Q01959 whole entry): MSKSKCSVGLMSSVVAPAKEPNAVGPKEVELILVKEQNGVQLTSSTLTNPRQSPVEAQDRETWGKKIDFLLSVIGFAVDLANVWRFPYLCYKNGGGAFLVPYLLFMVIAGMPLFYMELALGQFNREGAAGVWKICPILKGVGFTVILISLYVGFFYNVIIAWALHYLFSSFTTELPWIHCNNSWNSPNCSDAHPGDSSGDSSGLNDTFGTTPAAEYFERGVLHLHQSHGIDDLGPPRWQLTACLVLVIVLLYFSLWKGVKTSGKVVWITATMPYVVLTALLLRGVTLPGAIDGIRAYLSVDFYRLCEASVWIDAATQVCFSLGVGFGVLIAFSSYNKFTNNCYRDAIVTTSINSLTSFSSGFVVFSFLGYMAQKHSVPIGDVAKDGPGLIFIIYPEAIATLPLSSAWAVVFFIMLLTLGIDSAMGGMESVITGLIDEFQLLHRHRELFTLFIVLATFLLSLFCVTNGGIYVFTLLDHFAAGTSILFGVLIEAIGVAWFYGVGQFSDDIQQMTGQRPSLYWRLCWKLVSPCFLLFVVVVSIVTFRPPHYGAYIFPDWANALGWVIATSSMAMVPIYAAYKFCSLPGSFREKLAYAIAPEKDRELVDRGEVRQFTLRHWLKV
Chain of Sodium-dependent noradrenaline transporter (P23975 whole entry): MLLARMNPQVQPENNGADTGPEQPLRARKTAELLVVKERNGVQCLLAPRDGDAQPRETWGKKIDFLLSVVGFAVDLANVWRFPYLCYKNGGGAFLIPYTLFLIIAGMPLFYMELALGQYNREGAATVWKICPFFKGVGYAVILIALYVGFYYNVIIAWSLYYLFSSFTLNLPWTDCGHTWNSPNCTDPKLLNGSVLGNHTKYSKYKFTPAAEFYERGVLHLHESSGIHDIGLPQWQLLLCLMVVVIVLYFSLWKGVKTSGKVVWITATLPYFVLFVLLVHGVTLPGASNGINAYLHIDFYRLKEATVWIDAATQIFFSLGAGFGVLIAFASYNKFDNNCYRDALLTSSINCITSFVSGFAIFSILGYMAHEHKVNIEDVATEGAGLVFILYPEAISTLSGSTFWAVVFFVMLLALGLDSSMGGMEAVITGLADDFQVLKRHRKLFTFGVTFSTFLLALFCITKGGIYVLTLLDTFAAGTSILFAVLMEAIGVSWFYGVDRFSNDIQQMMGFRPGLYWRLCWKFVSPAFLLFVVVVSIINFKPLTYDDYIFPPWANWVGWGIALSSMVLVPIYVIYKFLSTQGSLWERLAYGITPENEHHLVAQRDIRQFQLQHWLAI
Chain of 5-hydroxytryptamine receptor 2B (P41595 whole entry): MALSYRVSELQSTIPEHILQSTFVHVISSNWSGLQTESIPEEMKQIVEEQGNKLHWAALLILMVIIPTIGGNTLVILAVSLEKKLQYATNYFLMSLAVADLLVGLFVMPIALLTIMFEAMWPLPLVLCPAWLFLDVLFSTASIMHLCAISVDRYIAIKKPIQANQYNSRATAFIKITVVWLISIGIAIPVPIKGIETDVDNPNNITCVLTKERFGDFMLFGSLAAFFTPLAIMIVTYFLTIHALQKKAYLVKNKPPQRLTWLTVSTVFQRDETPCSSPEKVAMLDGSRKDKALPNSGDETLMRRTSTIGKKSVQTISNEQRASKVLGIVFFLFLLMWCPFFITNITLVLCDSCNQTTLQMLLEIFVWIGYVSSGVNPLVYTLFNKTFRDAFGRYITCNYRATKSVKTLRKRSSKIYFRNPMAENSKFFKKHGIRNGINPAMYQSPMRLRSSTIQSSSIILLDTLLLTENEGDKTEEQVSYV
Chain of Prostaglandin G/H synthase 1 (P23219 whole entry): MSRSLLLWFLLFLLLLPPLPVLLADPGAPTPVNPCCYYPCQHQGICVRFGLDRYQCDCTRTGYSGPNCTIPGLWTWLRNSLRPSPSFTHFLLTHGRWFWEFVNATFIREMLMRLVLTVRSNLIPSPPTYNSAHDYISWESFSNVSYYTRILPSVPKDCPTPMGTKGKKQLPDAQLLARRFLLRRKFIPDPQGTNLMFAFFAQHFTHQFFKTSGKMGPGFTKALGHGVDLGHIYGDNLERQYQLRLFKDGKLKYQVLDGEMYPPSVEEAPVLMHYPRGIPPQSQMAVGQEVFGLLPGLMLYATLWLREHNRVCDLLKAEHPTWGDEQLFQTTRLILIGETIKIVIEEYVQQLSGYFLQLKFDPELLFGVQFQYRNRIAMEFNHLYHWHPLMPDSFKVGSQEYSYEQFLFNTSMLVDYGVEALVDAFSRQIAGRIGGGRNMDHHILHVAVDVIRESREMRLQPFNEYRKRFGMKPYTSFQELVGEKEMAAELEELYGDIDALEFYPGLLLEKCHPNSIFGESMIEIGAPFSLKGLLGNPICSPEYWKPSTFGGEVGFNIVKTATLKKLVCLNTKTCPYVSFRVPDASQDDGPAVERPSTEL

As to `O=C(Cn1ccnc1[N+](=O)[O-])NCc1ccccc1` [BENZNIDAZOLE], the AC50 in [1], in test [2], in test [3], in test [4], in test [5] and in [6] was over 30 µM in each case. Moreover, the AC50 in [7], in test [8], in test [9], in test [10], in test [11] and in test [12] was over 30 µM each time. Besides, the AC50 in test [13] was over 30 µM.
For `C[C@@H]1C[C@H]2[C@@H]3CCC4=CC(=O)C=C[C@]4(C)[C@@]3(F)[C@@H](O)C[C@]2(C)[C@H]1C(=O)CO` [DESOXIMETASONE], the AC50 in test [1], in test [14], in test [3], in test [4], in test [5] and in test [6] was over 30 µM in each case. Further, the AC50 in test [7], in test [8], in test [9], in test [15], in test [16] and in [10] was over 30 µM throughout. Further, the AC50 in test [11], in test [12] and in test [13] was over 30 µM throughout.
Consider `CC1=NN(c2ccccc2)C(=O)C1` [EDARAVONE], for which the AC50 in test [1] is over 30 µM; in test [14], over 30 µM; in test [3] it was 12.5 µM; in test [4] it was over 30 µM; in [5], over 30 µM; in [6], over 30 µM. The AC50 in test [7], in test [8], in [9], in test [15], in test [16] and in test [10] was over 30 µM each time. Further, the AC50 in test [11], in [12] and in test [13] was over 30 µM each time.
With `Oc1c(I)cc(I)c2cccnc12` [IODOQUINOL], the AC50 is over 30 µM in test [1]; over 30 µM in test [14]; over 30 µM in test [3]; over 30 µM in test [4]; 0.874 µM in test [5]; over 30 µM in [6]. The half-maximal activity concentration (AC50) in test [7] is over 30 µM; in test [8], over 30 µM; in test [9], 8.91 µM; in test [15] it was over 30 µM; in test [16], over 3 µM; in [10], over 30 µM. Moreover, the AC50 in [11], in [12] and in [13] was over 30 µM throughout.
As to `Nc1nc2c(ncn2CCC(CO)CO)c(=O)[nH]1` [PENCICLOVIR], the AC50 in test [1], in test [14], in test [3], in [4], in [5] and in [6] was over 30 µM throughout. Also, the AC50 in [7], in test [8], in test [9], in [15], in test [16] and in [10] was over 30 µM throughout. The AC50 in test [11], in test [12] and in test [13] was over 30 µM throughout.
With `O=C1CCC(N2C(=O)c3ccccc3C2=O)C(=O)N1` (stereo not drawn) [THALIDOMIDE], the AC50 in [1], in test [14], in [3], in test [4], in test [5] and in [6] was over 30 µM throughout. Besides, the AC50 in test [7] is over 30 µM; in test [8] it was over 30 µM; in [9] it was 0.202 µM; in test [15], over 30 µM; in [16] it was over 30 µM; in test [10] it was over 30 µM. The AC50 in test [11], in test [12] and in test [13] was over 30 µM throughout.
